# Measured values published in patent publication US20080206203A1, “Method for Inhibiting Tumor Metastasis” (Inflammation Research Center Company Ltd., priority 2004, published 2008).
# Read-outs that look alike come from different tables or passages of the source.
# Key:
# [1] = tested on: permeability of blood brain barrier and infiltration of white blood cells to cerebrospinal fluid caused by arachidonic acid; assay: arachidonic acid-induced central nervous system inflammation (CSF volume and WBC counts via subarachnoid cannula); format: in vivo, rat
# Description: To investigate the role of leukotriene antagonists in the treatment of inflammation, a sensitive and quantitative method to measure inflammation for the central nervous system was developed. Important changes in the inflammatory process can be monitored, as both the permeability of blood brain barrier (BBB) and the infiltration of white blood cells (WBC) to cerebrospinal fluid (CSF) caused by arachidonic acid can be measured over time from the same experimental animal. In particular, the effect of the leukotriene C4 and D4 antagonist, pranlukast, was studied using this method. Changes in the inflammatory process of both the permeability of BBB and the infiltration of white blood cells (WBC) caused by administering arachidonic acid as a nociceptive stimulus were observed.
# Male rats, approximately 350-400 g, were anesthetized with sodium pentobarbital at a dose of 50 mg/kg intraperitoneally (i.p.). Animals were then placed in a stereotaxic unit. Fur from the top of the head to neck was shaved. The study area was disinfected with 70% ethanol followed by a 10% providone-iodine solution. Skin and muscle over the cervical cord were dissected until cervical vertebrae were exposed. A hole was made using a 23 G3/4 needle passing through the dura via the cisterna magna. One end of a 2-3 mm PE10 cannula (0.011 “I.D., 0.007” thick, 0.024″ O.D., 6.5 cm long) was inserted into the subarachnoid space at the cervical cord so as to avoid damage to neuronal tissue (FIG. 3). The cannula was fixed with cyanoacrylic glue to the peripheral tissue. The other end of PE10 was used for administration of a nociceptive stimulus, such as arachidonic acid (AA; 3.25 μg/2 μl) and subsequently for collecting cerebrospinal fluid (CSF) every thirty minutes thereafter during the 11-hour experimental period. The cannula filled with CSF immediately after the cannulation.
# Air was infused to inject AA to the subarachnoid space. The muscles and skin were closed with surgical staples. The rat was then removed from the stereotaxic unit and placed on a heat pad and continuously monitored.
# In the interaction study, the leukotriene C4 and D4 antagonist, pranlukast, was administered (490 mg/kg, i.p.) thirty minutes before administration of arachidonic acid (AA). If the effects of the anesthesia appeared to be wearing off, an additional 0.05-0.1 ml pentobarbital (50 mg/ml, i.p.) dose was administered. If at any time during the experiment, the animal appeared to be in pain or distress, the study was immediately stopped and the animal was euthanized.
# In the present study, the volume (μl) of cerebrospinal fluid (CSF) and white blood cell (WBC) counts in CSF was measured every thirty minutes for 11 hours from the same rat. One side of the cannula (PE10) was inserted into the subarachnoid space under pentobarbital anesthesia, avoiding neuronal damage (FIG. 3). If the brain tissue is damaged, the volume of CSF and WBC increases immediately without the administration of arachidonic acid. Since there are no WBC in the CSF in the normal rat, only rats that had no WBC in the CSF immediately after the cannulation were used. Another side of the cannula remained open and was used for the administration of nociceptive stimuli (arachidonic acid, LPS, dextran, etc.) and subsequently for collecting the CSF every thirty minutes during the experiment. The CSF volume was measured using a micropipette and WBC in the CSF were counted by means of a hemacytometer.
# [2] = in vivo; cited from earlier work
# [3] = tested on: rats; details: cited from earlier work
# [4] = tested on: lung cancer cell line QG56; assay: interaction study with QG56 cancer cells i.v.; format: in vivo, human
# Procedure: (§1) To test for inhibition of metastasis, pranlukast is administered orally (instead of intraperitoneally as was done in Example 2) before intravenous injection of the cancer cells. Arachidonic acid (AA) is then administered to the subarachnoid space two hours after pranlukast administration. The volume of CSF, white blood cell counts and cancer cell counts in the CSF are measured every 30 minutes.
# (§2) Cultured human cancer cell lines, Colo 201 (colon cancer) and MKN 74 ([…]), and a cultured rat cancer cell line RCN9 were purchased from Health Science Research Resources Bank (Rinku-minamihama 2-11, Sennan-shi, Osaka, 590-0535, Japan). Human lung cancer cell line QG56 was a gift from Dr. Yukito Ichinose, Department of Laboratory Medicine, Kyusyu Cancer Center, Hukuoka, Japan. Cells were cultured at 37° C. and 5% CO2, in RPMI-1640 (SIGMA, MO, USA) supplemented with 5% fetal bovine serum, 2 mM L-glutamine (Gibco), 100 units penicillin, 100 μg/ml streptomycin (Gibco Invitrogen Corp., Grand Island, N.Y., USA).
# (§3) Rats were anesthetized by sodium pentobarbital (50 mg/kg i.p.).
# (§4) A femoral vein was exposed and a polyethylene tube filled with 0.002% heparin in saline was inserted. The other end of the polyethylene tube was connected to a three way cock valve for the intravenous injection of cancer cells. The animal was then placed in a stereotaxic unit (Type SRS-6 produced by Narishige Scientific Instrument Lab). Fur from the top of the head to the neck was shaved. The study area was disinfected with 70% ethanol. Skin and muscle over the cervical vertebrae were exposed. A hole was made using an 18 G×1 ½ needle passing through the dura via the cisterna magna. One end (2-3 mm) of an SP10 tube (5-6 cm long) was inserted into the subarachnoid space. The cannula was fixed with cyanoacrylic glue to the peripheral tissue. […]
# (§5) The volume (μl) of CSF, WBC counts, and cancer cells counts was measured after the 3rd treatment for 8 hours.
# [5] = tested on: MKN 74 cells; assay: interaction study with MKN74 cancer cells i.v.; format: in vivo, human; details: pranlukast-MKN 74-saline
# Procedure: as §1, §2, §3, §4, §5
# [6] = tested on: MKN 74 (lung cancer) cells; assay: interaction study with MKN74 cancer cells i.v.; format: in vivo, human; details: pranlukast-MKN74-arachidonic acid, 490 mg/kg p.o., rat
# Procedure: as §1, §2, §3, §4, §5
# [7] = tested on: RCN-9, a colon cancer cell line; assay: interaction study with RCN9 cancer cells i.v.; format: in vivo, rat
# Procedure: as §1, §2, §3, §4, §5
# [8] = tested on: dextran-induced rat paw edema; assay: dextran-induced rat paw edema; format: in vivo
# [9] = tested on: mice; details: cited from earlier work
# [10] = tested on: rats; details: cited from earlier work; remark: listed apart in the source
# [11] = tested on: Colo 201 (colon cancer) cells; assay: interaction study with Colo201 cancer cells i.v.; format: in vivo, human
# Procedure: as §1, §2, §3, §4, §5
# [12] = tested on: infiltration of WBC into the CSF caused by interleukin-6; assay: interleukin-6-induced infiltration of WBC into the CSF in the intact dog; format: in vivo; details: pretreatment, three different doses
# Description: Additionally, increased infiltration of WBC into the CSF caused by interleukin-6 were inhibited by pretreatment of pranlukast (administered at three different doses) in the intact dog.
# [13] = tested on: rat ischemia model; assay: rat ischemia model, reversible 30 minute occlusion of both carotid arteries followed by reperfusion; format: in vivo; details: pre-treatment
# Procedure: One of 4-5 rats survived for one week when pranlukast (450 mg/kg i.p.) was administered 30 minutes before the occlusion.
# [14] = 20 mg/kg p.o., cited from earlier work
# [15] = tested on: capillary permeability and extravasation of white blood cells and tumor cells from the capillary; assay: interaction study: arachidonic acid-induced capillary permeability and extravasation into CSF (model of metastasis); format: in vivo, rat
# Procedure: as §1, §3
# A femoral vein was exposed and a polyethylene tube filled with 0.002% heparin in saline was inserted. The other end of the polyethylene tube was connected to a three way cock valve for the intravenous injection of cancer cells. The animal was then placed in a stereotaxic unit (Type SRS-6 produced by Narishige Scientific Instrument Lab). Fur from the top of the head to the neck was shaved. The study area was disinfected with 70% ethanol. Skin and muscle over the cervical vertebrae were exposed. A hole was made using an 18 G×1 ½ needle passing through the dura via the cisterna magna. One end (2-3 mm) of an SP10 tube (5-6 cm long) was inserted into the subarachnoid space. The cannula was fixed with cyanoacrylic glue to the peripheral tissue. The other end of the SP10 tube was used for administration of arachidonic acid (8.16 ng/2 μl of saline) and subsequently for collecting cerebrospinal fluid (CSF) every thirty minutes thereafter for 1-2 hours in the in vivo morphological study and for 8 hours in the interaction studies.
# As a capsule of Onon contains 112.5 mg of pranlukast, the powder from two capsules was stirred in 2.295 ml of deionized water with the electric mixer immediately before oral administration. The volume of administration of pranlukast was 5 ml/kg (dose=490 mg/kg).
# The number of cancer cells were prepared to 1/100 of the number of neutrophils in each rat using PBS. Because of body weight (400±50 g), the number of cancer cells were between 1.88×10^4 and 2.43×10^4 and the volume of administration of cancer cell was adjusted to 1 ml for each rat.
# Arachidonic acid was dissolved in saline and 816.25 ng/2 μl was administered for each rat.
# Three different treatments were administered as follows;
# 1st treatment was pranlukast (490 mg/kg p.o.) or deionized water (p.o.).
# 2nd treatment was with cancer cells or PBS
# 3rd treatment was with arachidonic acid or saline.
# The first treatment was administered 2 hours before arachidonic acid. The second treatment (cancer cells i.v.) was administered 2-3 minutes before arachidonic acid. Two canula in each animal to the femoral vein and to the subarachnoid space were inserted between the 1st treatment and 2nd treatment.
# The number on the right side of table corresponds to that of the figures for the results. Four rats were used for each group.
# as §5
# To analyze whether or not human cancer cells, as foreign substances, affect the immune system in rats, each parameter, i.e., white blood cells counts, tumor cells counts and CSF volume with rat cancer cells (RCN9) was compared with the corresponding parameters of COLO201, MKN 74, and QG56, respectively, using area under time action curves and analysis of variance (Dunnet). Probability value was p<0.05 to be significant.
# [16] = pranlukast-QG56-arachidonic acid, 490 mg/kg p.o., rat
# [17] = pranlukast-RCN9-arachidonic acid, 490 mg/kg p.o., rat
# [18] = pranlukast-Colo201-arachidonic acid, 490 mg/kg p.o., rat
# [19] = 490 mg/kg p.o., eight hours after arachidonic acid
# [20] = pranlukast (490 mg/kg p.o.)-PBS-arachidonic acid (816 ng/2 μl), FIG. 11
compound,measurement,setting,value
"CCCCC/C=C\C/C=C\C/C=C\C/C=C\CCCC(=O)O [arachidonic acid, Arachidonic acid]",maximum CSF volume after administration,"[1]; arachidonic acid 3.2 μg/2 μl into subarachnoid space, collected every thirty minutes, rat",100 to 120 µL
same,CSF volume maintained for every thirty minutes,"[1]; arachidonic acid 3.2 μg/2 μl, during 4.0-5.0 hours post-administration",60 to 80 µL
same,time to peak / maximum CSF volume,"[1]; arachidonic acid into subarachnoid space, rat",≤ 3.5 h
COc1cc(C(=O)NS(=O)(=O)c2ccccc2C)ccc1Cc1cn(C)c2ccc(NC(=O)OC3CCCC3)cc12 [zafirlukast],passage of the blood-brain barrier,[2],"does not pass, or passes the blood-brain barrier at most at a very minimal level"
O=C(Nc1cccc2c(=O)cc(-c3nnn[nH]3)oc12)c1ccc(OCCCCc2ccccc2)cc1 [pranlukast],LD50,[3]; p.o.,> 2000 mg/kg
same,LD50,[3]; s.c.,> 2000 mg/kg
same,extravasation of tumor cells,[4]; [16],significantly inhibited
same,increasing capillary permeability,[4]; [16],significantly inhibited
same,effect when cancer cells present without arachidonic acid,[4]; pranlukast-QG56-saline,did not have any effect
same,effect when cancer cells present without arachidonic acid,[5],did not have any effect
same,extravasation of tumor cells,[6],significantly inhibited
same,increasing capillary permeability,[6],significantly inhibited
same,extravasation of tumor cells,[7]; [17],significantly inhibited
same,increasing capillary permeability,[7]; [17],significantly inhibited
same,effect when cancer cells present without arachidonic acid,[7]; pranlukast-RCN9-saline,did not have any effect
same,inhibition of dextran-induced paw edema,"[8]; about 490 mg/kg, administered intraperitoneally",completely inhibited
same,inhibition of dextran-caused paw edema,"[8]; about 490 mg/kg, administered orally (FIG. 2)",completely inhibited
same,inhibition of dextran-induced rat paw edema,[8]; dose dependence,inhibited by pranlukast in a dose-dependent fashion
same,LD50,[9]; p.o.,> 2000 mg/kg
same,LD50,[9]; s.c.,> 2000 mg/kg
same,"behavior, changes in body weight, and food intake compared with control group","[10]; repeated administration 30, 100, 300, 1000 mg/kg/day p.o. for three months and six months",normal
same,urine examination and histopathological examinations,[10]; repeated administration,normal
same,"behavior, changes in body weight, and food intake compared with control group","[10]; single administration 30, 100, 300, 1000 mg/kg p.o.",normal
same,urine examination and histopathological examinations,[10]; single administration,normal
same,extravasation of tumor cells,[11]; [18],significantly inhibited
same,increasing capillary permeability,[11]; [18],significantly inhibited
same,effect when cancer cells present without arachidonic acid,[11]; pranlukast-Colo201-saline,did not have any effect
same,inhibition of inflammation caused by arachidonic acid,"[1]; 450 mg/kg i.p., arachidonic acid 3.25 μg/2 μl",completely inhibits
same,inhibition of the increase of CSF volume,"[1]; 490 mg/kg i.p. thirty minutes before arachidonic acid (3.25 μg/2 μl) into the subarachnoid space, rat",completely inhibited
same,inhibition of the permeability of the brain capillary marked by WBC infiltration,"[1]; 490 mg/kg i.p. thirty minutes before arachidonic acid, rat",completely inhibited
same,increased infiltration of WBC into the CSF caused by interleukin-6,[12],inhibited
same,survival,[13],longer survival
same,pranlukast in blood 24 hours after administration,[14]; 24 hours,no pranlukast was observed
same,time at which maximum blood concentration was attained,[14],within one hour
same,time the maximum blood concentration was maintained,[14],at least 5 hours
same,"area under the time action curve, CSF",[15]; [19],zero
same,"area under the time action curve, white blood cell counts",[15]; [19],zero
same,"area under the time action curve, tumor cell counts","[15]; 490 mg/kg p.o., eight hours after arachidonic acid, tumor cells i.v.",zero
same,extravasation of white blood cells caused by arachidonic acid,[15]; [20],inhibited
same,increased capillary permeability caused by arachidonic acid,[15]; [20],inhibited
same,effect of pranlukast by itself on tumor/WBC counts and CSF volume,"[15]; pranlukast-PBS-saline, 490 mg/kg p.o., no arachidonic acid",no effect
same,passage of the blood-brain barrier,[2],"does not pass, or passes the blood-brain barrier at most at a very minimal level"
CC(C)(O)c1ccccc1CC[C@@H](SCC1(CC(=O)O)CC1)c1cccc(/C=C/c2ccc3ccc(Cl)cc3n2)c1 [montelukast],passage of the blood-brain barrier,[2],"does not pass, or passes the blood-brain barrier at most at a very minimal level"
